Experimental data as given in PMC11087482, “Discovering allatostatin type-C receptor specific agonists” (Nature Communications, 2024).
In brackets after ≈: the same amount, converted by molar mass. Like-named read-outs stand apart in the source and are kept apart here. Marks after values point to notes of the source that are not given here. Positions of bridges follow the written chain, without caps; N, C: chain ends. Non-standard residues stand in square brackets, D forms with d. Residues, ends and D or L forms follow the SMILES beside them. pGlu = O=C1CC[C@@H](C(=O)O)N1

Tests used:
T. pityocampa AlstR-C = assay: TGF-α shedding assay on HEK293 cells overexpressing the receptor; assay type: cell-based, Thaumetopoea pityocampa; settings: Gαq/i1, read-out: EC50 (AP-TGFα release)
Method: HEK293 cells were maintained in DMEM (PAN Biotech) supplemented with 10% FBS (Gibco) and 1% Penicillin-Streptomycin (Gibco) at 37 °C in a 5% CO2 incubator. Cells were seeded in 6-well plates before transfection, and Lipofectamine™ 3000 Transfection Reagent (Thermo Fisher Scientific) was used for transfection in compliance with the manufacturer’s instructions.
HEK293 cells were seeded in DMEM 10% FBS without P/S to 6-well plates 1 day before the transfection. Following overnight incubation at 37 °C, the cells were cotransfected with plasmids of the desired receptor (100 ng)[44],[48] or pcDNA3.1, AP-TGFα (250 ng), and Gαq/i1 (10 ng) using Lipofectamine™ 3000 Transfection Reagent and incubated 24 h at 37 °C 5% CO2 incubator. Plasmids used for the TGF-α shedding assay were kindly gifted from Prof. Asuka Inoue[82],[83]. TGF-α Shedding Assay was used to measure the activity of studied compounds[83]. Cell harvesting was accomplished with TrypLE™ Express Enzyme (Gibco) since it was previously noted that trypsinization results in a higher background signal. After reseeding the cells in a 96-well plate, 10x concentrations of the compounds prepared in HBSS were applied for stimulation. For compounds not readily soluble in water, a concentration of 0.01 % (w/v) bovine serum albumin (BSA) in HBSS was used for dilution. Each treatment was performed with four replicas. Alkaline phosphatase activity was measured before and after 1-h and 2-h incubation at room temperature, and the absorbance of the plates at 405 nm was measured. AP-TGF-α release signals were fitted to a four-parameter sigmoidal dose-response curve, and EC50 values were calculated using GraphPad Prism 9.5.

AlstR-C = assay: GloSensor cAMP assay after forskolin stimulation; assay type: cell-based, Thaumetopoea pityocampa; settings: after 10 µM forskolin
Method: The ability of the hit compounds to activate the Gαi pathway was evaluated using a commercial cAMP assay (GloSensor, Promega). Prior to ligand treatment, cells were stimulated with 10 µM forskolin to elevate intracellular cAMP levels, and the ability of each ligand and control to downregulate cAMP was evaluated after 1 h. […] As an additional control, the ability of the hit compounds to activate a different receptor (5-HTR4) was also assessed using an AP-TGFα assay (Fig. 4k).
HEK293 cells were seeded 30,000 cells per well in DMEM 10% FBS without P/S to Greiner 655094 96-well plates 1 day before the transfection. Following overnight incubation at 37 °C, the cells were cotransfected with plasmids of the desired receptor along with GloSensor^TM cAMP plasmid using Lipofectamine™ 3000 Transfection Reagent and incubated 24 h at 37 °C 5% CO2 incubator. […] The baseline development was measured on a Thermo Scientific Fluoroskan Ascent FL Microplate Fluorometer and Luminometer plate reader following the cell stimulation with 10 μL 10 μM forskolin, approximately 1 h. […] Luminescence was measured at 1 read per well every 2 min, scaling factor was 10. Data were analyzed by calculating the area under the curve (AUC) over the ~2-h measurement period. Statistical significance was measured with ANOVA, and multiple comparisons were done with Dunnett’s Test. […]

T. pityocampa larvae [1] = assay: Toxicity tests, topical application on second instar larvae; assay type: in vivo; settings: for Mean mortality: highest effect
Method: (§1) Pine processionary moth 2nd instar larvae of Thaumetopoea pityocampa for toxicity tests, adult, and 1st instar larvae of predator Calosoma sycophanta, 2nd instar larvae of potato beetle Leptinotarsa decemlineata were used for side effect assays.
T. pityocampa larvae were collected from red pine trees, Pinus brutia, in Nallıhan district of Ankara, Türkiye, in 2021. Larvae were cultured in 60 (±10) % humidity, 27 (±2) °C, and 16:8 light: dark photoperiod and were fed with red pine needles.
Stock solutions of the molecules were dissolved in DMSO, AST-C peptide was dissolved in PBS supplemented with 0.1% BSA pH 7.4. Dilutions were prepared in PBS supplemented with 0.1% BSA pH 7.4 in 50, 100, 250, 500, 750, and 1000 ppm (mg/L) concentrations and later placed in an ultrasonic bath (Sonorex, Bandelin) for ~10 min at 37 °C until all precipitates had vanished. Toxicity tests were conducted 1 day after larvae collection. 5 µL of doses were applied on the dorsal surface of the head-prothorax junction topically. […] Two negative control groups were prepared as PBS-applied and no application. Following the procedures, larvae were fed with 15 g P. brutia needles. Experiments were carried out on 10 larvae for each dosage, with three repeats.
(§2) Insect deaths were evaluated on the 3rd, 7th, and 14th days in toxicity and side effect experiments. The ones that were not feeding or not responding by a movement to stimulation with a soft-tipped brush were accepted as dead. Percentage mortality values generated on the 14th day were corrected using Abbott’s formula[84]. Statistical analyses were executed with IBM SPSS Statistics (v26.0) and R Studio (2022.02.0), and two-way ANOVA and Tukey test were performed to detect the data’s statistical significance. Lethal concentration values of LC50–90 (dose that produces 50-90% mortality in the population) with 95% confidence intervals (CI) and slopes were obtained using PoloPlus software (LeOra Software, USA) for mortality values assessed on the 14th day for T. pityocampa and the 3rd day for L. decemlineata. The LC50–90 values were considered to be similar if their 95% CIs overlapped (P > 0.05)[85]. Analysis between-subject effects on T. pityocampa larva length; one-way ANOVA tests assessing the impacts of molecule treatment on T. pityocampa larvae on larva length; and analysis of between-subjects effects on T. pityocampa head capsule width, alongside one-way ANOVA tests regarding the effects of molecule treatment on T. pityocampa larvae to head capsule width are detailed in the Source Data File (Source Data Supplementary Data Tables 1–4). Source data is available as Source Data File.

T. pityocampa larvae [2] = assay: Larval body allometry (body length, head capsule width) on day 14 of treatment; assay type: in vivo, Thaumetopoea pityocampa; settings: for head capsule width / total body length: 14th day of treatment; for Larva Length, Mean Difference (I-J) versus Control / head capsule width, Mean Difference (I-J) versus Control: day 14, Tukey HSD, n = 20
Method: In addition, the ability of the identified hit compounds to alter larval body allometry was tested through measuring total body lengths and head capsule widths on the 14th day of treatment (Fig. 7).
as §2

[3] = design: method as in PMID 19540423, PMID 20936640; settings: cited from earlier work
[4] = system: Calosoma sycophanta first-instar larvae and adults; assay: Side effect tests on predatory insect, topical application; assay type: in vivo; settings: 1000 ppm topical, days 3, 7, 14
Method: as §1
C. sycophanta adults and T. pityocampa nests were collected from Korkuteli forests in Antalya 2022. T. pityocampa nests were stored at +4 °C to prevent pupae formation. 20 adult C. sycophanta were placed in clear plastic boxes (30 × 45 × 30 cm) with moist soil at the bottom. Adults were fed with T. pityocampa larvae regularly. After mating, C. sycophanta eggs were collected from the soil with a soft tip brush, and eggs were reserved in moist cotton until eggs cracked. Subsequently, C. sycophanta larvae were placed individually in clear, hard plastic cups (180 cm^3) containing moist soil and covered with glass. One T. pityocampa larva per day was added to each cup for feeding. Predator insects were cultured in 65 (±5) % humidity, 25 (±5) °C, and 16:8 light: dark photoperiod.
(§3) Effective molecules of toxicity tests were applied on adults, 1st instar larvae of predator C. sycophanta, and 2nd instar larvae of potato beetle L. decemlineata to evaluate side effects.
C. sycophanta larvae and adults were placed individually in clear, hard plastic cups (180 cc) containing moist soil. 5 µL of 1000 ppm dose was applied topically on the head-prothorax junction’s dorsal surface. 50 larvae and adults were used in the experiments. One T. pityocampa larva per day was added to each cup for feeding. Two negative controls were PBS-applied and no application groups.
as §2, with “Analysis between-subject effects on T. pityocampa larva length; one-way ANOVA tests assessing the impacts of molecule treatment on T. pityocampa larvae on larva length; and analysis of between-subjects effects on T. pityocampa head capsule width, alongside one-way ANOVA tests regarding the effects of molecule treatment on T. pityocampa larvae to head capsule width are detailed in the Source Data File (Source Data Supplementary Data Tables 1–4). Source data is available as Source Data File.” left out

[5] = system: Leptinotarsa decemlineata second-instar larvae; assay: Side effect tests on potato beetle larvae, topical application; assay type: in vivo; settings: 1000 ppm topical, second-instar larvae, days 3, 7, 14
Method: as §1
(§4) L. decemlineata larvae were collected from a potato field in Kahramankazan district of Ankara province in 2022. The larvae were cultured in the laboratory under 60% (±10) humidity, 27(±2) °C temperature, and 16:8 light: dark photoperiod with potato plant leaves.
as §3
(§5) 5 µL of 1000 ppm dose were applied topically on the dorsal surface of the head-prothorax junction 2nd instar larvae of potato beetle. 30 larvae were used in assays, and larvae were placed on potato leaves inside the water-filled cups for feeding. Negative control groups were as previously described. Dimilin 25 WP (%25 diflubenzuron) was used as a positive control on L. decemlineata. Experiments were carried out with three repeats.
as §2

[6] = as above; assay type: in vivo; settings: Leptinotarsa decemlineata, in vivo
Method: as §1, §4, §3, §5, §2

[7] = day 14 mortality, Probit analysis
[8] = Thaumetopoea pityocampa, topical, 336 h, read-out: LC50 (95% CI)
[9] = Thaumetopoea pityocampa, topical, 336 h

Row | Compound | EC50 (T. pityocampa AlstR-C) | ability to downregulate cAMP (RLU) (AlstR-C) | Mean mortality (T. pityocampa larvae [1]; 14 days post-administration) | LC50 (T. pityocampa larvae [1]; day 14 after the application, Probit analysis) | LC50 (95% CI) (T. pityocampa larvae [1]; [7]) | LC90 (95% CI) (T. pityocampa larvae [1]; [7]) | head capsule width (T. pityocampa larvae [2]) | total body length (T. pityocampa larvae [2]) | Larva Length, Mean Difference (I-J) versus Control (T. pityocampa larvae [2]) | head capsule width, Mean Difference (I-J) versus Control (T. pityocampa larvae [2]) | shelf life and degradation in the environment [3] | mortality rate (T. pityocampa larvae [1]; 14 days post-administration, highest dose) | LC50 (T. pityocampa larvae [1]; [8]) | mortality (T. pityocampa larvae [1]; end of day 7, 1000 ppm) | Insect deaths (mortality rate) [4] | Insect deaths (mortality rate) [5] | LC50 (T. pityocampa larvae [1]; [9]) | LC50 at 3 days ([6]; L. decemlineata larvae, positive control, 3rd day mortality) | LC50 at 3 days ([6]; potato beetle larvae, after 3 days of application) | mortality (T. pityocampa larvae [1]; after 3 days, >500 ppm)
1 | CC[C@H](C)[C@@H]1NC(=O)[C@@H]2CCCN2C(=O)[C@H](CC(N)=O)NC(=O)[C@H](Cc2ccccc2)NC(=O)[C@H](Cc2ccc(O)cc2)NC(=O)[C@@H](NC(=O)[C@H](CCC(N)=O)NC(=O)[C@H](CCCNC(=N)N)NC(=O)[C@H](Cc2ccccc2)NC(=O)[C@H](CCCNC(=N)N)NC(=O)[C@@H](NC(=O)[C@@H]2CCC(=O)N2)C(C)C)CSSC[C@@H](C(=O)N[C@@H](Cc2ccccc2)C(=O)O)NC(=O)[C@H](CO)NC1=O [AST-C, reference compound] ([pGlu]VRFRQCYFNPISCF-OH; disulfide 7-14; C-terminus assumed) | 0.000623 µM | most significant impact | 100% | 152 ppm | 152.414 (101.993–209.528) mg/L | 782.851 (512.785–1616.980) mg/L | Statistically significant decreases | Statistically significant decreases | -9,070* mm | -1,105* mm | comparatively short shelf life and undergoes rapid degradation in the environment | – | – | – | – | – | – | – | – | –
2 | O=C(C[C@@H]1NC(=O)c2ccccc2NC1=O)NCCn1c(=O)c(O)nc2ccccc21 [J100-0311] | 5.66 µM | – | – | – | – | 6740.368 (2743.061–6.275 × 10^4) mg/L | – | – | -8,015* mm | -1,075* mm | – | – | 412 µg/mL (≈ 977 µM) | – | below 10% | below 10% | 411 µg/mL (≈ 975 µM) | – | – | –
3 | O=C(NC(=O)c1c(F)cccc1F)Nc1ccc(Cl)cc1 [Diflubenzuron, diflubenzuron, reference compound] | – | – | – | – | – | – | – | – | – | – | – | – | – | – | – | – | – | 38.5 µg/mL (≈ 124 µM) | 38 µg/mL (≈ 122 µM) | –
4 | COc1ccc([C@H](CC(=O)NCc2ccncc2)c2cn(Cc3ccc(C)cc3)c3ccccc23)cc1OCc1ccccc1 [V029-3547] | 8.17 µM | greatest ability to modulate cAMP | 83.7% | – | – | 900.815 (696.503–1634.450) mg/L | – | – | -8,705* mm | -1,120* mm | – | – | 406 µg/mL (≈ 682 µM) | – | below 10% | below 10% | 406 µg/mL (≈ 682 µM) | – | – | > 63.3%

More lines, main results first:

Row | EC50 (T. pityocampa AlstR-C) | Compound | ability to downregulate cAMP (RLU) (AlstR-C) | Mean mortality (T. pityocampa larvae [1]; 14 days post-administration) | LC50 (T. pityocampa larvae [1]; day 14 after the application, Probit analysis) | LC50 (95% CI) (T. pityocampa larvae [1]; [7]) | LC90 (95% CI) (T. pityocampa larvae [1]; [7]) | head capsule width (T. pityocampa larvae [2]) | total body length (T. pityocampa larvae [2]) | Larva Length, Mean Difference (I-J) versus Control (T. pityocampa larvae [2]) | head capsule width, Mean Difference (I-J) versus Control (T. pityocampa larvae [2]) | shelf life and degradation in the environment [3] | mortality rate (T. pityocampa larvae [1]; 14 days post-administration, highest dose) | LC50 (T. pityocampa larvae [1]; [8]) | mortality (T. pityocampa larvae [1]; end of day 7, 1000 ppm) | Insect deaths (mortality rate) [4] | Insect deaths (mortality rate) [5] | LC50 (T. pityocampa larvae [1]; [9]) | LC50 at 3 days ([6]; L. decemlineata larvae, positive control, 3rd day mortality) | LC50 at 3 days ([6]; potato beetle larvae, after 3 days of application) | mortality (T. pityocampa larvae [1]; after 3 days, >500 ppm)
5 | 1.42 µM | O=C1c2n[nH]c(-c3ccccc3O)c2C(c2cccc(Oc3ccccc3)c2)N1CC1CCCO1 (stereo not drawn) [D074-0013] | – | – | – | – | – | small compared to other molecules | small compared to other molecules | -4,445* mm | – | – | below 50% | > 1000 µg/mL | 27% | below 10% | below 10% | – | – | – | –
6 | 4.7 µM | O=C1c2n[nH]c(-c3ccccc3O)c2C(c2cccc(OCc3ccccc3)c2)N1CC1CCCO1 (stereo not drawn) [D074-0034] | – | – | – | – | – | – | – | -7,845* mm | -1,000* mm | – | – | 444 µg/mL (≈ 921 µM) | – | below 10% | below 10% | 443 µg/mL (≈ 920 µM) | – | – | –
